According to PubChem BioAssay AID248 (DTP/NCI, 2004):
Several values for one entry are separate records, joined by “and”; a condition that tells them apart may be missing. Equal entries are not always repeated. Toxic doses and inconclusive results are not listed. Cut-off read from the data, not from the text of the source: active = T/C of 150% or more; inactive = T/C below 125%.

Test system: L1210 leukemia ip in BDF1 mice, survival T/C
Test: NCI In Vivo Anticancer Drug Screen. Data for tumor model L1210 Leukemia (intraperitoneal) in B6D2F1 (BDF1) mice
Conditions: endpoint: mean survival time, higher = longer survival
Summary of the method: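 Survival endpoint. Drug-treated group vs vehicle group, expressed as T divided by C. Tumor passaged by transplantation.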

[1] = dose: 100.0 mg/kg/injection, schedule: Q04DX002 (ip), vehicle: saline with Tween-80
[2] = dose: 100.0 mg/kg/injection, schedule: Q04DX003 (ip), vehicle: saline with Tween-80
[3] = dose: 200.0 mg/kg/injection, schedule: Q04DX002 (ip), vehicle: saline with Tween-80
[4] = dose: 200.0 mg/kg/injection, schedule: Q04DX003 (ip), vehicle: saline with Tween-80
[5] = dose: 400.0 mg/kg/injection, schedule: Q04DX002 (ip), vehicle: saline with Tween-80
[6] = dose: 400.0 mg/kg/injection, schedule: Q04DX003 (ip), vehicle: saline with Tween-80
[7] = dose: 100.0 mg/kg/injection, schedule: Q01DX001 (ip), vehicle: saline
[8] = dose: 200.0 mg/kg/injection, schedule: Q01DX001 (ip), vehicle: saline
[9] = dose: 100.0 mg/kg/injection, schedule: Q04DX002 (ip), vehicle: Klucel (hydroxypropylcellulose) (HPC)
[10] = dose: 200.0 mg/kg/injection, schedule: Q04DX002 (ip), vehicle: Klucel (hydroxypropylcellulose) (HPC)
[11] = dose: 400.0 mg/kg/injection, schedule: Q04DX002 (ip), vehicle: Klucel (hydroxypropylcellulose) (HPC)
[12] = dose: 100.0 mg/kg/injection, schedule: Q01DX009 (ip), vehicle: saline with Tween-80
[13] = dose: 200.0 mg/kg/injection, schedule: Q01DX009 (ip), vehicle: saline with Tween-80
[14] = dose: 50.0 mg/kg/injection, schedule: Q01DX009 (ip), vehicle: saline
[15] = dose: 200.0 mg/kg/injection, schedule: Q01DX009 (ip), vehicle: saline

Measured: T/C

CCCNC(=O)Oc1ccc(SC)cc1
inactive: dose: 100.0 mg/kg/injection, schedule: Q01DX001 (ip), vehicle: other 96 % of control | dose: 100.0 mg/kg/injection, schedule: Q01DX009 (ip), vehicle: other 94 % of control and 99 % of control | dose: 100.0 mg/kg/injection, schedule: Q04DX002 (ip), vehicle: other 93 % of control and 97 % of control | [1] 100 % of control | [2] 107 % of control | dose: 200.0 mg/kg/injection, schedule: Q01DX001 (ip), vehicle: other 98 % of control | dose: 200.0 mg/kg/injection, schedule: Q01DX009 (ip), vehicle: other 103 % of control | dose: 200.0 mg/kg/injection, schedule: Q04DX002 (ip), vehicle: other 97 % of control and 103 % of control | [3] 113 % of control | [4] 105 % of control | dose: 400.0 mg/kg/injection, schedule: Q01DX009 (ip), vehicle: other 89 % of control | dose: 400.0 mg/kg/injection, schedule: Q04DX002 (ip), vehicle: other 108 % of control and 86 % of control | [5] 106 % of control | [6] 100 % of control

C[n+]1ccc(/C=C/c2ccc(Cl)c(Cl)c2)c2ccccc21
inactive: dose: 12.5 mg/kg/injection, schedule: Q04DX003 (ip), vehicle: Klucel (hydroxypropylcellulose) (HPC) 98 % of control | dose: 25.0 mg/kg/injection, schedule: Q04DX003 (ip), vehicle: Klucel (hydroxypropylcellulose) (HPC) 100 % of control | dose: 50.0 mg/kg/injection, schedule: Q04DX003 (ip), vehicle: Klucel (hydroxypropylcellulose) (HPC) 96 % of control

CCOC(=O)C(=O)C(C#N)c1cccc2ccccc12 (stereo not given)
inactive: dose: 100.0 mg/kg/injection, schedule: Q04DX003 (ip), vehicle: Klucel (hydroxypropylcellulose) (HPC) 100 % of control | dose: 200.0 mg/kg/injection, schedule: Q04DX003 (ip), vehicle: Klucel (hydroxypropylcellulose) (HPC) 96 % of control

[N-]=[N+]=C1N=NC=C1C(N)=O
inactive: dose: 50.0 mg/kg/injection, schedule: Q01DX001 (ip), vehicle: saline 98 % of control | [7] 107 % of control | [8] 107 % of control

NC(CSS(=O)(=O)O)=NCCN1CCNC1=O
inactive: [9] 100 % of control | [10] 100 % of control | [11] 97 % of control

COC(OC)c1[nH]c(=S)[nH]c(=O)c1Cc1ccc(-c2ccccc2)cc1
inactive: [2] 101 % of control | [4] 100 % of control | [6] 95 % of control

C(CC1CCCC1)=C(CCC1CCCC1)CCC1CCCC1
inactive: dose: 50.0 mg/kg/injection, schedule: Q04DX002 (ip), vehicle: saline with Tween-80 103 % of control | [1] 92 % of control | [3] 95 % of control | [5] 92 % of control

CCOC(=O)C(=CNc1cccc2cnccc12)C(=O)OCC
inactive: dose: 50.0 mg/kg/injection, schedule: Q01DX009 (ip), vehicle: saline with Tween-80 91 % of control | [12] 88 % of control | [13] 88 % of control

COC1=C2C=[N+](C)C3C(=C2C=CC1OC)Cc1cc2c(cc13)OCO2 (stereo not given)
inactive: dose: 50.0 mg/kg/injection, schedule: Q01DX001 (ip), vehicle: carboxymethylcellulose (CMC) 104 % of control | dose: 100.0 mg/kg/injection, schedule: Q01DX001 (ip), vehicle: carboxymethylcellulose (CMC) 107 % of control | dose: 200.0 mg/kg/injection, schedule: Q01DX001 (ip), vehicle: carboxymethylcellulose (CMC) 102 % of control

CCc1ccc(C(=O)NN)cc1
inactive: dose: 25.0 mg/kg/injection, schedule: Q01DX009 (ip), vehicle: saline 95 % of control | [14] 105 % of control and 113 % of control | [15] 117 % of control | dose: 400.0 mg/kg/injection, schedule: Q01DX009 (ip), vehicle: saline 123 % of control

NNC(=O)C1C2CCCCC21 (stereo not given)
inactive: [2] 107 % of control

Nc1nc2c(c(=O)[nH]1)CP(=S)(c1ccccc1)CC2 (stereo not given)
inactive: [1] 102 % of control | [3] 102 % of control | [5] 94 % of control

COCN(C(=O)CCl)c1c(C)cccc1C(C)(C)C
inactive: [12] 95 % of control | [13] 97 % of control | dose: 400.0 mg/kg/injection, schedule: Q01DX009 (ip), vehicle: saline with Tween-80 93 % of control

CC1(C(=O)O)CCC(C(=O)O)C1(C)C (stereo not given)
inactive: [1] 105 % of control | [3] 100 % of control | [5] 93 % of control

CCOC(=O)/C(Cc1n[n+]([O-])ccc1Cl)=N\N
inactive: dose: 43.75 mg/kg/injection, schedule: Q04DX002 (ip), vehicle: Klucel (hydroxypropylcellulose) (HPC) 116 % of control | dose: 87.5 mg/kg/injection, schedule: Q04DX002 (ip), vehicle: Klucel (hydroxypropylcellulose) (HPC) 101 % of control | dose: 175.0 mg/kg/injection, schedule: Q04DX002 (ip), vehicle: Klucel (hydroxypropylcellulose) (HPC) 96 % of control

CC(=O)Nc1nnc(NC(C)=O)s1
inactive: dose: 9.38 mg/kg/injection, schedule: Q01DX001 (ip), vehicle: other 102 % of control | dose: 18.75 mg/kg/injection, schedule: Q01DX001 (ip), vehicle: other 107 % of control

COc1ccc(NC(=S)Nc2ccccc2)c(Cl)c1
inactive: [9] 105 % of control | [10] 97 % of control | [11] 108 % of control

N#CCCP(=S)(CCC#N)CCC#N
inactive: [9] 94 % of control | [10] 112 % of control | [11] 105 % of control

BrCCC[CH2][Sn]([c]1ccccc1)([c]1ccccc1)[c]1ccccc1
inactive: [14] 100 % of control | dose: 100.0 mg/kg/injection, schedule: Q01DX009 (ip), vehicle: saline 100 % of control | [15] 100 % of control

O=C(Nc1ccc(Br)cc1)Oc1ccccc1C(=O)Nc1ccccc1
inactive: dose: 100.0 mg/kg/injection, schedule: Q01DX009 (ip), vehicle: Klucel (hydroxypropylcellulose) (HPC) 98 % of control | dose: 200.0 mg/kg/injection, schedule: Q01DX009 (ip), vehicle: Klucel (hydroxypropylcellulose) (HPC) 98 % of control | dose: 400.0 mg/kg/injection, schedule: Q01DX009 (ip), vehicle: Klucel (hydroxypropylcellulose) (HPC) 88 % of control

CC(C)(c1ccc(OCC2CO2)cc1)c1ccc(OCC2CO2)cc1 (stereo not given)
inactive: [7] 101 % of control | [8] 109 % of control | dose: 400.0 mg/kg/injection, schedule: Q01DX001 (ip), vehicle: saline 96 % of control

O=C(O)CCCCCNC(=O)C(F)(F)F
inactive: dose: 100.0 mg/kg/injection, schedule: Q04DX003 (ip), vehicle: other 94 % of control | dose: 200.0 mg/kg/injection, schedule: Q04DX003 (ip), vehicle: other 103 % of control | dose: 400.0 mg/kg/injection, schedule: Q04DX003 (ip), vehicle: other 87 % of control
